Test results as given in patent US20230094952A1, “Method for Culturing Hematopoietic Stem Cells” (Sumitomo Pharma Co., Ltd., priority 2019, published 2023).

What was measured:
[1] = test system: human hematopoietic stem cells (CD34-positive cells); assay: Confirmation test with human cells: 1-week culture of cord blood Lineage-negative CD34-positive cells, flow cytometry; format: cell-based
From the text: Collection of Human Cord Blood-Derived Mononuclear Cells Human cord blood-derived mononuclear cells were subjected to removal of erythrocytes and concentration treatment by using EasySep RBC Depletion Reagent (manufactured by […] Technologies Inc.) to obtain a cell population including hematopoietic stem cells.
First, a CD34-positive cell fraction was partially purified from the thus-obtained cell population including hematopoietic stem cells by using an EASYSep Human Cord Blood CD34 Positive Selection Kit II (manufactured by […] Technologies Inc.). The concentrated CD34-positive cells in a cell population enriched with hematopoietic stem cells and progenitor cells were stained with antibodies for the following cell surface markers.
Staining with the antibodies was performed at 4° C., and the cells were incubated for 30 minutes. For staining with the CD34 antibody, the cells were incubated for 90 minutes. Dead cell staining was performed with SYTOX Blue Dead Cell Stain (manufactured by Life Technologies) in accordance with a method recommended by the manufacturer.
Flow cytometry analysis and cell classification (cell sorting) were performed with a FACS Aria III cell sorter (manufactured by BD Biosciences), wherein fractions being Lineage-negative and CD34-positive were regarded as hematopoietic stem cells, and analysis was performed with the software FlowJo (manufactured by Tree Star, Inc.).
The cells after classification were seeded in a 96-well plate. […]
Each of artemether and the compounds of Example 1-23, Example 1-16, and Example 1-7 was prepared with the cell culture medium at nine final concentrations (0.001 μM, 0.003 μM, 0.01 μM, 0.03 μM, 0.1 μM, 0.3 μM, 1 μM, 3 μM, 10 μM), and added to the above human cells seeded after classification to a final volume of 200 μL/well to act thereon. UM171 (35 nM) was added to some of them to examine the presence or absence of synergistic effect. Thereafter, the cells were cultured in a CO2 incubator under conditions of 37° C. and 5% CO2 for 1 week. Viable cell counts and CD34-positive cell counts were analyzed.
After culture, the cells were stained with the antibodies for the surface markers CD34, CD11b, CD14, CD19, CD20, CD235ab, CD3, CD4, CD56, and CD8a, and the visible cell count and the ratio and post-growth cell count of a CD34 fraction (CD34^+, Lin^−) were measured by using a FACS Aria III cell sorter, and analyzed by using FlowJo (BD Biosciences). The CD34 fraction is a fraction including hematopoietic stem cells and multipotent progenitor cells as main components.

[2] = test system: human hematopoietic stem cells (CD34-positive cells); assay: Functional test with human cells: colony assay (CFU-GEMM) after culture; format: cell-based
Protocol: Each of artemether and the compounds of Example 1-23, Example 1-16, and Example 1-7 was prepared with the cell culture medium at nine final concentrations (0.001 μM, 0.003 μM, 0.01 μM, 0.03 μM, 0.1 μM, 0.3 μM, 1 μM, 3 μM, 10 μM), and added to the above human cells seeded after classification to a final volume of 200 μL/well to act thereon. UM171 (35 nM) was added to some of them to examine the presence or absence of synergistic effect. Thereafter, the cells were cultured in a CO2 incubator under conditions of 37° C. and 5% CO2 for 1 week, collected, and then seeded in a 96-well plate to place one CD34-positive cell in each well by using a FACS Aria III cell sorter, and cultured with a MethoCult H4435 ([…] Technologies Inc.) for 2 weeks. After culture, each well was photographed with an optical microscope (manufactured by KEYENCE CORPORATION), and the colony count was determined by visual observation and the form of each colony was determined by visual observation. Colony Formation Unit-Granulocytes, Erythroids, Macrophages, Megakaryocytes (CFU-GEMM), which are derived from myeloid progenitor cells, the erythroid burst colony-forming cells Burst Forming Unit-Erythroids (BFU-E), the granulocyte/macrophage colony-forming cells Colony Formation Unit-Granulocytes, Macrophages (CFU-GM) were determined on the basis of the forms of colonies, and the numbers were counted.

[3] = compound 0.001 μM, 180 cells before culture, no UM171
[4] = compound 0.003 μM, 180 cells before culture, no UM171
[5] = compound 0.01 μM, 180 cells before culture, no UM171
[6] = compound 0.03 μM, 180 cells before culture, no UM171
[7] = compound 0.1 μM, 180 cells before culture, no UM171
[8] = compound 0.3 μM, 180 cells before culture, no UM171
[9] = compound 1 μM, 180 cells before culture, no UM171
[10] = compound 3 μM, 180 cells before culture, no UM171
[11] = compound 10 μM, 180 cells before culture, no UM171
[12] = compound 0.001 μM, 1 week culture then 2 weeks MethoCult H4435, no UM171
[13] = compound 0.003 μM, 1 week culture then 2 weeks MethoCult H4435, no UM171
[14] = compound 0.01 μM, 1 week culture then 2 weeks MethoCult H4435, no UM171
[15] = compound 0.03 μM, 1 week culture then 2 weeks MethoCult H4435, no UM171
[16] = compound 0.1 μM, 1 week culture then 2 weeks MethoCult H4435, no UM171
[17] = compound 0.3 μM, 1 week culture then 2 weeks MethoCult H4435, no UM171
[18] = compound 1 μM, 1 week culture then 2 weeks MethoCult H4435, no UM171
[19] = compound 3 μM, 1 week culture then 2 weeks MethoCult H4435, no UM171
[20] = compound 10 μM, 1 week culture then 2 weeks MethoCult H4435, no UM171
[21] = UM171 (35 nM) and artemether 0.001 μM
[22] = UM171 (35 nM) and artemether 0.003 μM
[23] = UM171 (35 nM) and artemether 0.01 μM
[24] = UM171 (35 nM) and artemether 0.03 μM
[25] = UM171 (35 nM) and artemether 0.1 μM
[26] = UM171 (35 nM) and artemether 0.3 μM
[27] = UM171 (35 nM) and artemether 1 μM

Work on `COCCO[C@H]1O[C@@H]2O[C@@]3(C)CC[C@H]4[C@H](C)CC[C@@H]([C@H]1C)[C@@]24OO3` [Example 1-23, (3R,5aS,6R,8aS,9R,10S,12R,12aR)-10-(2-methoxyethoxy)-3,6,9-trimethyldecahydro-12H-3,12-epoxypyrano[4,3-j][1,2]benzodioxepine] yielded a CD34-positive cell count [1, 3] of 156 cell, a Viable cell count [1, 3] of 1581 cell and a CD34-positive cell count [1, 4] of 65 cell. For the same compound, the Viable cell count [1, 4] was 797 cell, the CD34-positive cell count [1, 5] was 72 cell and the Viable cell count [1, 5] was 1152 cell. For the same compound, the CD34-positive cell count [1, 6] was 63 cell, the Viable cell count [1, 6] was 901 cell and the CD34-positive cell count [1, 7] was 28 cell. The Viable cell count [1, 7] was 537 cell, the CD34-positive cell count [1, 8] was 19 cell and the Viable cell count [1, 8] was 462 cell. It also gave a CD34-positive cell count [1, 9] of 16 cell, a Viable cell count [1, 9] of 480 cell and a CD34-positive cell count [1, 10] of 15 cell. For the same compound, the Viable cell count [1, 10] was 269 cell, the CD34-positive cell count [1, 11] was 0 cell and the Viable cell count [1, 11] was 333 cell. The “Colony count (colony) after culture (CFU-GEMM)” value (“Colony count (colony)” for short) [2, 12] was 171.3 colony, the “Colony count (colony)” value [2, 13] was 39.9 colony and the “Colony count (colony)” value [2, 14] was 76.8 colony. For the same compound, the “Colony count (colony)” value [2, 15] was 22.5 colony, the “Colony count (colony)” value [2, 16] was 13.4 colony and the “Colony count (colony)” value [2, 17] was 3.9 colony. The “Colony count (colony)” value [2, 18] was 12.0 colony, the “Colony count (colony)” value [2, 19] was 4.5 colony and the “Colony count (colony)” value [2, 20] was 0.0 colony.

`CO[C@H]1O[C@@H]2O[C@@]3(C)CC[C@H]4[C@H](C)CC[C@@H]([C@H]1C)[C@@]24OO3` [Example 1-30, artemether, reference compound] showed a CD34-positive cell count [1, 21] of 36 cell, a Viable cell count [1, 21] of 301 cell and a CD34-positive cell count [1, 22] of 102 cell. It also gave a Viable cell count [1, 22] of 765 cell, a CD34-positive cell count [1, 23] of 43 cell and a Viable cell count [1, 23] of 323 cell. The CD34-positive cell count [1, 24] was 56 cell, the Viable cell count [1, 24] was 216 cell and the CD34-positive cell count [1, 25] was 93 cell. For the same compound, the Viable cell count [1, 25] was 376 cell, the CD34-positive cell count [1, 26] was 9 cell and the Viable cell count [1, 26] was 240 cell. It also gave a CD34-positive cell count [1, 27] of 0 cell, a Viable cell count [1, 27] of 31 cell and a CD34-positive cell count [1, 3] of 59 cell. For the same compound, the Viable cell count [1, 3] was 484 cell, the CD34-positive cell count [1, 4] was 88 cell and the Viable cell count [1, 4] was 921 cell. The CD34-positive cell count [1, 5] was 57 cell, the Viable cell count [1, 5] was 498 cell and the CD34-positive cell count [1, 6] was 23 cell. It also gave a Viable cell count [1, 6] of 298 cell, a CD34-positive cell count [1, 7] of 45 cell and a Viable cell count [1, 7] of 555 cell. For the same compound, the CD34-positive cell count [1, 8] was 61 cell, the Viable cell count [1, 8] was 550 cell and the CD34-positive cell count [1, 9] was 35 cell. The Viable cell count [1, 9] was 479 cell, the CD34-positive cell count [1, 10] was 26 cell and the Viable cell count [1, 10] was 380 cell. The CD34-positive cell count [1, 11] was 27 cell, the Viable cell count [1, 11] was 250 cell and the “Colony count (colony)” value [2, 21] was 40.1 colony. The “Colony count (colony)” value [2, 22] was 204.0 colony, the “Colony count (colony)” value [2, 23] was 53.8 colony and the “Colony count (colony)” value [2, 24] was 46.8 colony. The “Colony count (colony)” value [2, 25] was 94.0 colony, the “Colony count (colony)” value [2, 26] was 40.0 colony and the “Colony count (colony)” value [2, 27] was 0.0 colony. For the same compound, the “Colony count (colony)” value [2, 12] was 40.3 colony, the “Colony count (colony)” value [2, 13] was 61.4 colony and the “Colony count (colony)” value [2, 14] was 33.2 colony. For the same compound, the “Colony count (colony)” value [2, 15] was 34.8 colony, the “Colony count (colony)” value [2, 16] was 37.0 colony and the “Colony count (colony)” value [2, 17] was 36.7 colony. The “Colony count (colony)” value [2, 18] was 63.9 colony, the “Colony count (colony)” value [2, 19] was 31.7 colony and the “Colony count (colony)” value [2, 20] was 0.0 colony.

`C[C@H]1[C@H](C(N)=O)O[C@@H]2O[C@@]3(C)CC[C@H]4[C@H](C)CC[C@@H]1[C@@]24OO3` [Example 1-16, (3R,5aS,6R,8aS,9R,10R,12R,12aR)-3,6,9-Trimethyldecahydro-12H-3,12-epoxypyrano[4,3-j][1,2]benzodioxepine-10-carboxamide] gave a CD34-positive cell count [1, 3] of 143 cell, a Viable cell count [1, 3] of 1306 cell and a CD34-positive cell count [1, 4] of 173 cell. The Viable cell count [1, 4] was 1224 cell, the CD34-positive cell count [1, 5] was 116 cell and the Viable cell count [1, 5] was 1301 cell. For the same compound, the CD34-positive cell count [1, 6] was 130 cell, the Viable cell count [1, 6] was 590 cell and the CD34-positive cell count [1, 7] was 92 cell. For the same compound, the Viable cell count [1, 7] was 811 cell, the CD34-positive cell count [1, 8] was 32 cell and the Viable cell count [1, 8] was 549 cell. The CD34-positive cell count [1, 9] was 13 cell, the Viable cell count [1, 9] was 368 cell and the CD34-positive cell count [1, 10] was 13 cell. It also gave a Viable cell count [1, 10] of 300 cell, a CD34-positive cell count [1, 11] of 3 cell and a Viable cell count [1, 11] of 264 cell. For the same compound, the “Colony count (colony)” value [2, 12] was 130.6 colony, the “Colony count (colony)” value [2, 13] was 112.2 colony and the “Colony count (colony)” value [2, 14] was 65.1 colony. For the same compound, the “Colony count (colony)” value [2, 15] was 68.8 colony, the “Colony count (colony)” value [2, 16] was 40.6 colony and the “Colony count (colony)” value [2, 17] was 22.9 colony. The “Colony count (colony)” value [2, 18] was 15.7 colony, the “Colony count (colony)” value [2, 19] was 10.0 colony and the “Colony count (colony)” value [2, 20] was 8.8 colony.
